Source: US9062124B2, “GIP-based mixed agonists for treatment of metabolic disorders and obesity” (priority 2008, dated 2015)
Where a SMILES comes first, the peptide text is derived from it. Bridges are numbered along the chain shown (N, C = ends). [ ]: non-standard residue; d: D form. The star is where a group is joined. Octanoyl = CCCCCCCC(=O)*; Aib = CC(C)(N)C(=O)O

Assays:
Assay type in all cases: cell-based
GLP-1 receptor = biological target: T1, GLP-1 receptor (Homo sapiens, UniProt P43220); test: cAMP synthesis functional assay (firefly luciferase reporter in HEK293 cells), GLP-1 receptor
T1 construct: expressed in transfected cells; host or cells: HEK293
T1 sequence (P43220 24-463, species assumed): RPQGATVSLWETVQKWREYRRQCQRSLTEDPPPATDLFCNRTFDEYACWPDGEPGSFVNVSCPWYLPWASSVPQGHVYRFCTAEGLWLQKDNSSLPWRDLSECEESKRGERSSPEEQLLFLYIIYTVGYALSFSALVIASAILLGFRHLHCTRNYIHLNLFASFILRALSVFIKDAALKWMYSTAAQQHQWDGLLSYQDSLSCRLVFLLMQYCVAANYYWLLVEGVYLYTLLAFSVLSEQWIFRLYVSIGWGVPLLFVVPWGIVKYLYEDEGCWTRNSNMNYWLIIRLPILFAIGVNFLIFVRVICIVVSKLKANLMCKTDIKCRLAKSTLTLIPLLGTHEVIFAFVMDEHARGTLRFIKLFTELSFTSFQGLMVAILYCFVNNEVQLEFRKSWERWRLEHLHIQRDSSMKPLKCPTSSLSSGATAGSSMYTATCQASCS

GIP receptor = biological target: T2, GIP receptor (Homo sapiens, UniProt P48546); test: cAMP synthesis functional assay (firefly luciferase reporter in HEK293 cells), GIP receptor
T2 construct: expressed in transfected cells; host or cells: HEK293
T2 sequence (P48546 22-466): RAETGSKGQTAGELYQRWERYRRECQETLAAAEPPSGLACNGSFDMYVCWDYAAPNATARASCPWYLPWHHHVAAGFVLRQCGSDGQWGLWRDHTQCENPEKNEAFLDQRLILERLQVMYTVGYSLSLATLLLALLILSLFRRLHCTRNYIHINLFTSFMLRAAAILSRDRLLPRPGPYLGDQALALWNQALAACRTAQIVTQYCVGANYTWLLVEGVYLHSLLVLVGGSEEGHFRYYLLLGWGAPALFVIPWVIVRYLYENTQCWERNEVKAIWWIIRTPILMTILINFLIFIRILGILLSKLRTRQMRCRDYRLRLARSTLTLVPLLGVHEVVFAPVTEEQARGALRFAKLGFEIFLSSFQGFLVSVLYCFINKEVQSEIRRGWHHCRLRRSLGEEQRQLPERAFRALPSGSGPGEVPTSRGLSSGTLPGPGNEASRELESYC

glucagon receptor = biological target: T3, glucagon receptor (Homo sapiens, UniProt P47871); test: cAMP synthesis functional assay (firefly luciferase reporter in HEK293 cells), glucagon receptor
T3 construct: expressed in transfected cells; host or cells: HEK293
T3 sequence (P47871 26-477): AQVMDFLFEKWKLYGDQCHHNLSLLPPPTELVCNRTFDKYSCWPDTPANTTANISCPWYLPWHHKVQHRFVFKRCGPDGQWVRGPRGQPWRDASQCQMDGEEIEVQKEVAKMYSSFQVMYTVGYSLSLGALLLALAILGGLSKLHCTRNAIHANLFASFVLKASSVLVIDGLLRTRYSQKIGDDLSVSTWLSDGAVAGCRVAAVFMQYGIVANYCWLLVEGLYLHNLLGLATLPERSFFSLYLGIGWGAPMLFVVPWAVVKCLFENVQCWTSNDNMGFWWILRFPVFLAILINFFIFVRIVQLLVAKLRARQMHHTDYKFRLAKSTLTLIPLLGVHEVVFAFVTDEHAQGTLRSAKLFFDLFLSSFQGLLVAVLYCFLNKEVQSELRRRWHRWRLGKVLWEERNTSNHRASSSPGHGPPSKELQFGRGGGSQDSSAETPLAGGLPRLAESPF

[1] = system: glucagon receptor, GLP-1 receptor or GIP receptor; test: Agonist profile across receptors assigned from the cAMP reporter assay data; conditions: assigned from the in vitro EC50 data of Tables 1-4
[2] = relative to the standard (Std.) EC50 of the same run
[3] = Table 1, relative to the native hormone of the indicated receptor
[4] = GLP-1 Receptor EC50, nM, Table 1

Compound: CCCCCCCC(=O)NCCCC[C@H](NC(=O)[C@H](CO)NC(=O)[C@@H]1CCCN1C(=O)[C@@H]1CCCN1C(=O)[C@@H]1CCCN1C(=O)[C@H](C)NC(=O)CNC(=O)[C@H](CO)NC(=O)[C@H](CO)NC(=O)[C@@H]1CCCN1C(=O)CNC(=O)CNC(=O)[C@H](C)NC(=O)[C@H](CC(C)C)NC(=O)[C@H](CC(C)C)NC(=O)[C@H](Cc1c[nH]c2ccccc12)NC(=O)[C@H](CC(N)=O)NC(=O)[C@@H](NC(=O)[C@H](Cc1ccccc1)NC(=O)[C@H](CCC(=O)O)NC(=O)C(C)(C)NC(=O)[C@H](C)NC(=O)[C@H](C)NC(=O)[C@H](CCC(N)=O)NC(=O)[C@H](CCCCN)NC(=O)[C@H](CC(=O)O)NC(=O)[C@H](CC(C)C)NC(=O)[C@H](Cc1ccc(O)cc1)NC(=O)[C@@H](NC(=O)[C@H](CO)NC(=O)[C@H](Cc1ccc(O)cc1)NC(=O)[C@H](CC(=O)O)NC(=O)[C@H](CO)NC(=O)[C@@H](NC(=O)[C@H](Cc1ccccc1)NC(=O)[C@@H](NC(=O)CNC(=O)[C@H](CCC(N)=O)NC(=O)C(C)(C)NC(=O)[C@@H](N)Cc1ccc(O)cc1)[C@@H](C)O)[C@@H](C)O)[C@@H](C)CC)C(C)C)C(N)=O [mt-323] (H-Y[Aib]QGTFTSDYSIYLDKQAA[Aib]EFVNWLLAGGPSSGAPPPSK(Octanoyl)-NH2; N-terminus assumed)
- EC50 (GLP-1 receptor; GLP-1 Receptor EC50, cAMP luciferase reporter assay as in Example 16): 0.0571 nM
- GLP-1 Receptor relative activity (GLP-1 receptor; [2]): 35.55%
- GIP Receptor relative activity (GIP receptor; [2]): 122.62%
- EC50 (glucagon receptor; Glucagon Receptor EC50, cAMP luciferase reporter assay as in Example 16): 0.217 nM
- Glucagon Receptor relative activity (glucagon receptor; [2]): 39.00%
- receptor activity profile (glucagon / GLP-1 / GIP agonism) [1]: exhibited activity at the GIP, GLP-1, and glucagon receptors

Compound: CC[C@H](C)[C@H](NC(=O)[C@H](CO)NC(=O)[C@H](Cc1ccc(O)cc1)NC(=O)[C@H](CC(=O)O)NC(=O)[C@H](CO)NC(=O)[C@@H](NC(=O)[C@H](Cc1ccccc1)NC(=O)[C@@H](NC(=O)CNC(=O)[C@H](CCC(=O)O)NC(=O)C(C)(C)NC(=O)[C@@H](N)Cc1ccc(O)cc1)[C@@H](C)O)[C@@H](C)O)C(=O)N[C@@H](Cc1ccc(O)cc1)C(=O)N[C@@H](CC(C)C)C(=O)N[C@@H](CC(=O)O)C(=O)N[C@H]1CCC(=O)NCCCC[C@@H](C(=O)N[C@@H](CCC(=O)O)C(=O)N[C@@H](Cc2ccccc2)C(=O)N[C@H](C(=O)N[C@@H](CC(N)=O)C(=O)N[C@@H](Cc2c[nH]c3ccccc23)C(=O)N[C@@H](CC(C)C)C(=O)N[C@@H](CC(C)C)C(=O)N[C@@H](C)C(=O)NCC(=O)NCC(=O)N2CCC[C@H]2C(=O)N[C@@H](CO)C(=O)N[C@@H](CO)C(=O)NCC(=O)N[C@@H](C)C(=O)N2CCC[C@H]2C(=O)N2CCC[C@H]2C(=O)N2CCC[C@H]2C(=O)N[C@@H](CO)C(=O)N[C@@H](CS)C(N)=O)C(C)C)NC(=O)[C@H](C)NC(=O)[C@H](C)NC(=O)[C@H](CCC(N)=O)NC1=O [mt-174] (H-Y[Aib]EGTFTSDYSIYLDEQAAKEFVNWLLAGGPSSGAPPPSC-NH2; lactam 16-20; N-terminus assumed)
- GLP-1 Receptor relative activity (GLP-1 receptor; [3]): 117.65%
- GIP Receptor relative activity (GIP receptor; [3]): 95.65%
- Glucagon Receptor relative activity (glucagon receptor; [3]): 0.06%
- receptor activity profile (glucagon / GLP-1 / GIP agonism) [1]: exemplary GLP-1/GIP co-agonist peptides

Compound: CC[C@H](C)[C@H](NC(=O)[C@H](CO)NC(=O)[C@H](Cc1ccc(O)cc1)NC(=O)[C@H](CC(=O)O)NC(=O)[C@H](CO)NC(=O)[C@@H](NC(=O)[C@H](Cc1ccccc1)NC(=O)[C@@H](NC(=O)CNC(=O)[C@H](CCC(N)=O)NC(=O)C(C)(C)NC(=O)[C@@H](N)Cc1ccc(O)cc1)[C@@H](C)O)[C@@H](C)O)C(=O)N[C@@H](Cc1ccc(O)cc1)C(=O)N[C@@H](CC(C)C)C(=O)N[C@@H](CC(=O)O)C(=O)NC(C)(C)C(=O)N[C@@H](CCC(N)=O)C(=O)N[C@@H](C)C(=O)N[C@@H](C)C(=O)N[C@@H](CCC(N)=O)C(=O)N[C@@H](CCC(=O)O)C(=O)N[C@@H](Cc1ccccc1)C(=O)N[C@H](C(=O)N[C@@H](CC(N)=O)C(=O)N[C@@H](Cc1c[nH]c2ccccc12)C(=O)N[C@@H](CC(C)C)C(=O)N[C@@H](CC(C)C)C(=O)N[C@@H](C)C(=O)NCC(=O)NCC(=O)N1CCC[C@H]1C(=O)N[C@@H](CO)C(=O)N[C@@H](CO)C(=O)NCC(=O)N[C@@H](C)C(=O)N1CCC[C@H]1C(=O)N1CCC[C@H]1C(=O)N1CCC[C@H]1C(=O)N[C@@H](CO)C(=O)N[C@@H](CS)C(N)=O)C(C)C [mt-242] (H-Y[Aib]QGTFTSDYSIYLD[Aib]QAAQEFVNWLLAGGPSSGAPPPSC-NH2; N-terminus assumed)
- EC50 (GLP-1 receptor; GLP-1 Receptor EC50, nM, Table 2): 0.102 nM
- GLP-1 Receptor relative activity (GLP-1 receptor; Table 2): 29.41%
- EC50 (GIP receptor; GIP Receptor EC50, nM, Table 2): 0.078 nM
- GIP Receptor relative activity (GIP receptor; Table 2): 14.10%
- EC50 (glucagon receptor; Glucagon Receptor EC50, nM, Table 2, linear peptides with AIB at position 16 and/or 20): 1.11 nM
- Glucagon Receptor relative activity (glucagon receptor; Table 2): 9.58%
- receptor activity profile (glucagon / GLP-1 / GIP agonism) [1]: exhibited activities of glucagon/GLP-1/GIP triagonists

Compound: CC[C@H](C)[C@H](NC(=O)[C@H](Cc1ccccc1)NC(=O)[C@H](CCC(=O)O)NC(=O)[C@@H]1CCCCNC(=O)CC[C@H](NC(=O)[C@H](CC(=O)O)NC(=O)[C@H](CC(C)C)NC(=O)[C@H](Cc2ccc(O)cc2)NC(=O)[C@@H](NC(=O)[C@H](CO)NC(=O)[C@H](Cc2ccc(O)cc2)NC(=O)[C@H](CC(=O)O)NC(=O)[C@H](CO)NC(=O)[C@@H](NC(=O)[C@H](Cc2ccccc2)NC(=O)[C@@H](NC(=O)CNC(=O)[C@H](CCC(=O)O)NC(=O)[C@H](CO)NC(=O)[C@@H](N)Cc2ccc(O)cc2)[C@@H](C)O)[C@@H](C)O)[C@@H](C)CC)C(=O)N[C@@H](CCC(N)=O)C(=O)N[C@@H](C)C(=O)N[C@@H](C)C(=O)N1)C(=O)N[C@@H](C)C(=O)N[C@@H](Cc1c[nH]c2ccccc12)C(=O)N[C@@H](CC(C)C)C(=O)N[C@@H](CC(C)C)C(=O)N[C@@H](C)C(=O)NCC(=O)NCC(=O)N1CCC[C@H]1C(=O)N[C@@H](CO)C(=O)N[C@@H](CO)C(=O)NCC(=O)N[C@@H](C)C(=O)N1CCC[C@H]1C(=O)N1CCC[C@H]1C(=O)N1CCC[C@H]1C(=O)N[C@@H](CO)C(N)=O [mt-148] (H-YSEGTFTSDYSIYLDEQAAKEFIAWLLAGGPSSGAPPPS-NH2; lactam 16-20; N-terminus assumed)
- EC50 (GLP-1 receptor; [4]): 0.098 nM
- GLP-1 Receptor relative activity (GLP-1 receptor; [3]): 36.22%
- GIP Receptor relative activity (GIP receptor; [3]): 65.26%
- Glucagon Receptor relative activity (glucagon receptor; [3]): 2.14%
- receptor activity profile (glucagon / GLP-1 / GIP agonism) [1]: exemplary GLP-1/GIP co-agonist peptides

Compound: CC[C@H](C)[C@H](NC(=O)[C@H](CC(C)C)NC(=O)[C@H](Cc1c[nH]c2ccccc12)NC(=O)[C@H](CC(N)=O)NC(=O)[C@@H](NC(=O)[C@H](Cc1ccccc1)NC(=O)[C@H](CCC(=O)O)NC(=O)[C@@H]1CCCCNC(=O)CC[C@H](NC(=O)[C@H](CC(=O)O)NC(=O)[C@H](CC(C)C)NC(=O)[C@H](Cc2ccc(O)cc2)NC(=O)[C@H](Cc2ccc(O)cc2)NC(=O)[C@H](CO)NC(=O)[C@H](Cc2ccc(O)cc2)NC(=O)[C@H](CC(=O)O)NC(=O)[C@H](CO)NC(=O)[C@@H](NC(=O)[C@H](Cc2ccccc2)NC(=O)[C@@H](NC(=O)CNC(=O)[C@H](CCC(N)=O)NC(=O)C(C)(C)NC(=O)[C@@H](N)Cc2ccc(O)cc2)[C@@H](C)O)[C@@H](C)O)C(=O)N[C@@H](CCC(N)=O)C(=O)N[C@@H](C)C(=O)N[C@@H](C(C)C)C(=O)N1)C(C)C)C(=O)N[C@@H](C)C(=O)NCC(=O)NCC(=O)N1CCC[C@H]1C(=O)N[C@@H](CO)C(=O)N[C@@H](CO)C(=O)NCC(=O)N[C@@H](C)C(=O)N1CCC[C@H]1C(=O)N1CCC[C@H]1C(=O)N1CCC[C@H]1C(=O)N[C@@H](CO)C(N)=O [mt-162] (H-Y[Aib]QGTFTSDYSYYLDEQAVKEFVNWLIAGGPSSGAPPPS-NH2; lactam 16-20; N-terminus assumed)
- EC50 (GLP-1 receptor; [4]): 0.011 nM
- GLP-1 Receptor relative activity (GLP-1 receptor; [3]): 109.09%
- GIP Receptor relative activity (GIP receptor; [3]): 25.74%
- Glucagon Receptor relative activity (glucagon receptor; [3]): 0.97%
- receptor activity profile (glucagon / GLP-1 / GIP agonism) [1]: exemplary GLP-1/GIP co-agonist peptides

Compound: CC[C@H](C)[C@@H]1NC(=O)[C@@H](NC(=O)[C@H](CC(=O)O)NC(=O)[C@H](CC(C)C)NC(=O)[C@H](Cc2ccc(O)cc2)NC(=O)[C@H](CCCCN)NC(=O)[C@H](CO)NC(=O)[C@H](Cc2ccc(O)cc2)NC(=O)[C@H](CC(=O)O)NC(=O)[C@H](CO)NC(=O)[C@@H](NC(=O)[C@H](Cc2ccccc2)NC(=O)[C@@H](NC(=O)CNC(=O)[C@H](CCC(N)=O)NC(=O)[C@H](CO)NC(=O)[C@@H](N)Cc2ccc(O)cc2)[C@@H](C)O)[C@@H](C)O)CCC(=O)NCCCC[C@@H](C(=O)N[C@@H](CC(=O)O)C(=O)N[C@@H](Cc2ccccc2)C(=O)N[C@H](C(=O)N[C@@H](CC(N)=O)C(=O)N[C@@H](Cc2c[nH]c3ccccc23)C(=O)N[C@@H](CC(C)C)C(=O)N[C@@H](CC(C)C)C(=O)N[C@@H](C)C(=O)NCC(=O)NCC(=O)N2CCC[C@H]2C(=O)N[C@@H](CO)C(=O)N[C@@H](CO)C(=O)NCC(=O)N[C@@H](C)C(=O)N2CCC[C@H]2C(=O)N2CCC[C@H]2C(=O)N2CCC[C@H]2C(=O)N[C@@H](CO)C(N)=O)C(C)C)NC(=O)[C@H](CCC(N)=O)NC(=O)[C@H](Cc2c[nH]cn2)NC1=O [mt-116] (H-YSQGTFTSDYSKYLDEIHQKDFVNWLLAGGPSSGAPPPS-NH2; lactam 16-20; N-terminus assumed)
- GLP-1 Receptor relative activity (GLP-1 receptor; [3]): 1.07%
- GIP Receptor relative activity (GIP receptor; [3]): 7.62%
- Glucagon Receptor relative activity (glucagon receptor; [3]): 18.68%
- receptor activity profile (glucagon / GLP-1 / GIP agonism) [1]: exemplary GIP/glucagon co-agonist peptides
